Results: PMC7664879, “Discovery of 12O—A Novel Oral Multi-Kinase Inhibitor for the Treatment of Solid Tumor” (Molecules, 2020)

Experiments:
[1] = target: T1, PDGFR-beta(h) (Homo sapiens, UniProt P09619); test: Kinase inhibition assay (Eurofins KinaseProfiler); format: biochemical; details: ATP at Km
T1 construct: purchased Eurofins (KinaseProfiler service)
Experimental: (§1) Kinase inhibition profiles were determined using KinaseProfiler services provided by Eurofins, and ATP concentrations used are the Km of corresponding kinases.
(§2) PDGFR-alfa(h) [PDGFR-beta(h)] was incubated with 8 mM MOPS pH 7.0, 0.2 mM EDTA, 0.1 mg/mL poly(Glu, Tyr) 4:1, 10 mM MnCl2, 10 mM MgAcetate and [gamma-33P]-ATP.
(§3) All the reactions above were initiated by the addition of the Mg/ATP mix. After incubation for 40 min at room temperature, the reaction was stopped by the addition of phosphoric acid to a concentration of 0.5%. An amount of 10 µL of the reaction was then spotted onto a P30 filtermat and washed four times for 4 min in 0.425% phosphoric acid and once in methanol prior to drying and scintillation counting.

[2] = target: T2, PDGFR-alfa(h) (Homo sapiens, UniProt P16234); test: Kinase inhibition assay (Eurofins KinaseProfiler); format: biochemical; details: ATP at Km
T2 construct: purchased Eurofins (KinaseProfiler service)
T2 sequence (P16234 24-1089): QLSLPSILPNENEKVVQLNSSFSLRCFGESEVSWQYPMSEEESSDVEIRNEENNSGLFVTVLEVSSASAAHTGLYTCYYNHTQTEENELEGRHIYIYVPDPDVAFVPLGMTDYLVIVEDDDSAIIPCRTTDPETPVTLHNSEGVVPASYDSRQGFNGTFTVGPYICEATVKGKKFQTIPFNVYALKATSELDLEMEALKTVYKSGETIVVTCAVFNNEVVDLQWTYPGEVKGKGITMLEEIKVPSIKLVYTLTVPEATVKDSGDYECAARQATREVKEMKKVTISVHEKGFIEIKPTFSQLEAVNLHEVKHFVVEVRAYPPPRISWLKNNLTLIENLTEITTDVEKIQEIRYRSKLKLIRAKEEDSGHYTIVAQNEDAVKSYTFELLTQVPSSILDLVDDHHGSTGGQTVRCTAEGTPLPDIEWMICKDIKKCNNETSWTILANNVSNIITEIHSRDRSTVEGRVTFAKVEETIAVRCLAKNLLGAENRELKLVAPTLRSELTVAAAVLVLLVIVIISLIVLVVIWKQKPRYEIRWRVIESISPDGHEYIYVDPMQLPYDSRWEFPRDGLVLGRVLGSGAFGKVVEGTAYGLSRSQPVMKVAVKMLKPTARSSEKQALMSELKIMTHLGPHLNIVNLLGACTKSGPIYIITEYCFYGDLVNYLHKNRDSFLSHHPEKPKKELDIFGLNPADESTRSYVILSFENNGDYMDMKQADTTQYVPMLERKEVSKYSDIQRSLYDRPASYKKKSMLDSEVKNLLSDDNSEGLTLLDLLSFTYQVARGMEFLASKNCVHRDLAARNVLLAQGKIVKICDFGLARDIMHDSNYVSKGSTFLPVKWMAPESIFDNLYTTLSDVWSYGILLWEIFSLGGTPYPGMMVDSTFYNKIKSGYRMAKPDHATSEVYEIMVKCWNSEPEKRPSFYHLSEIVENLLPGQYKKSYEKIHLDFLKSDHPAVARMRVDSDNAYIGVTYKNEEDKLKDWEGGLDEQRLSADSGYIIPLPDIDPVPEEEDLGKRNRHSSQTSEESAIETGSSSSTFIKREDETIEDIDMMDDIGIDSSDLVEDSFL
Experimental: as §1, §2, §3

[3] = system: SKOV3 cells; test: Colony formation assay, SKOV3; format: cell-based, human
Text: (§4) Colony formation assay assesses the effect of a therapy on clonogenic survival which is one of the most important parameters of therapy efficacy in oncology. […] We also performed colony formation assay in SKOV3 cells at concentrations according to IC50 values to confirm the result (Figure S3).
(§5) Cells treated with indicated compounds or vehicle were washed with PBS, trypsinized, and reseeded into 6-well plates at 500–1000 cells per well. The colonies were allowed to form for 10–15 days. At the end of the culture, cells were washed with PBS, fixed with methanol for 30 min, then stained with 0.5% crystal violet overnight. After careful washing, the images were taken.

[4] = system: MCF-7; test: CCK-8 cell growth inhibition, MCF-7; format: cell-based, human; details: Homo sapiens, MCF7; breast cancer; CCK-8 assay, 72-h incubation
Experimental: (§6) In vitro anticancer screening of all newly synthesized compounds towards human solid tumor cells, cervical (SiHa) and ovarian (SKOV3) cancer cell lines, was carried out by standard CCK-8 assay with cisplatin as the positive control, as cisplatin is one of the most used chemotherapy drugs. […] The compound was further evaluated in a dose response study against a panel of solid tumor cells, including cervical cancer cell lines (SiHa and HeLa), ovarian cancer cell lines (SKOV3 and OVCAR-5), breast cancer cell lines (4T1 and MCF-7), lung cancer cell lines (A549 and H460) to test cytotoxic activity. The IC50 values were summarized in Table 2, including the cytotoxic activity of the cisplatin used as reference compound.
(§7) The viability of cells as determined using the CCK8 assay method. Cells were seeded (2000–3000 cells per well) in 96-well plates. After incubation for 24 h in serum-containing media, the cells were treated with drugs at different concentrations diluted with culture medium for 72 h at 37 °C with a 5% CO2 atmosphere. […] Finally, absorbance values of test wells (AS), control wells (AC) and blank wells (Ab) at 450 nm were read using the Microplate Reader (Promega, WI). Inhibition ratios were calculated as follows: [(AC − AS)/ (AC−Ab)] × 100%. IC50 values were calculated using GraphPad software.

[5] = system: SiHa cells; test: Cell cycle assay (propidium iodide, flow cytometry); format: cell-based, human; details: 0.04 μM, 24 h
Experimental: To understand how 12O inhibited cell proliferation, cell cycle analysis was performed. The effect of 12O on cell cycle distribution was assessed in the SiHa cell lines. […] Of note, 12O at 0.04 μM was able to increase the proportion of the cells in the G2/M phase from approximately 16.0 ± 1.3% (DMSO) to 22.3 ± 0.7%, and decreased the corresponding fraction of the cells in the S phase from about 22.8 ± 0.4 % (DMSO) to 16.1 ± 1.1 % (Figure 3).
Cells were plated on 6-well culture plates at a density of 5 × 10^5 cells/mL. The cells were treated with the indicated concentrations of 12O or ribociclib for 24 h after their adherence. Cells were washed with PBS for three times and then fixed with ice cold 75% ethanol overnight. The fixed cells were then washed with PBS and stained with propidium iodide ([…]) in the presence of RNase A (0.5 mg) for 30 min at 37 °C. The stained cells were then subjected to flow cytometry (Becton Dickinson (BD), San Jose, CA, USA.) for cell cycle analysis.

[6] = system: HeLa; test: CCK-8 cell growth inhibition, HeLa; format: cell-based, human; details: Homo sapiens, HeLa; cervical cancer; CCK-8 assay, 72-h incubation
Experimental: as §6, §7

[7] = target: T3, CDK9/cyclin T1(h) (Homo sapiens, UniProt P50750); test: Kinase inhibition assay (Eurofins KinaseProfiler); format: biochemical; details: ATP at Km
T3 construct: purchased Eurofins (KinaseProfiler service)
T3 sequence (P50750 whole entry): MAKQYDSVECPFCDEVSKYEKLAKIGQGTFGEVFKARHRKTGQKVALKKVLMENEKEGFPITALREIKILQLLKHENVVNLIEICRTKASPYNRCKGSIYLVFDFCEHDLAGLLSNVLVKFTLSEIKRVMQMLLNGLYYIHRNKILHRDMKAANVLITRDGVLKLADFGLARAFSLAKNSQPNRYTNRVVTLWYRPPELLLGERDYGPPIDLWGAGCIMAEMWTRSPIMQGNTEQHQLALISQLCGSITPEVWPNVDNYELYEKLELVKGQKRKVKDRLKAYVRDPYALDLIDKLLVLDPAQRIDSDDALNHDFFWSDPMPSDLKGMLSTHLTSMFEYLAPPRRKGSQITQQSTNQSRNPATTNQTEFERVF
T3 sequence (O60563 whole entry partner): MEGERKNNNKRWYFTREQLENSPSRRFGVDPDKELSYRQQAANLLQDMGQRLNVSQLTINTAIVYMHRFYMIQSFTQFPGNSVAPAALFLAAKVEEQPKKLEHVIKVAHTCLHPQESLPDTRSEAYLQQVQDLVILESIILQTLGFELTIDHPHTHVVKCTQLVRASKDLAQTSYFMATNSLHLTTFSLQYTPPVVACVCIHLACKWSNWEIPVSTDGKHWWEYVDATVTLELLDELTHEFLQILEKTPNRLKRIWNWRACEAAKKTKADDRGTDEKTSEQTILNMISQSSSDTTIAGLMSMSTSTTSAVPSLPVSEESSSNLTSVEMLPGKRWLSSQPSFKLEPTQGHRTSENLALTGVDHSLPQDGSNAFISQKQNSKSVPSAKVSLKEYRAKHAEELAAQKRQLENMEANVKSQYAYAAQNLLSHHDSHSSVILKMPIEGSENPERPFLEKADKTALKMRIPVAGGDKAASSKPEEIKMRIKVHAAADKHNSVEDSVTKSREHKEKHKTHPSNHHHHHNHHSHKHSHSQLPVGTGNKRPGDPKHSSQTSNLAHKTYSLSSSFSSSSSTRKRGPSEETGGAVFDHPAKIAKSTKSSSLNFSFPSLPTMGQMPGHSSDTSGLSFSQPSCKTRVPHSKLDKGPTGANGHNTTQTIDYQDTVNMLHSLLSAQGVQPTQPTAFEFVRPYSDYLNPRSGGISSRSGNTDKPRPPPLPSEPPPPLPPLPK
Experimental: as §1
CDK9/cyclinT1 (h) was incubated with 8 mM MOPS pH 7.0, 0.2 mM EDTA, 100 uM […], 10 mM MgAcetate and [gamma-33P]-ATP (specific activity and concentration as required).
as §3

[8] = system: SiHa cells; test: Colony formation assay, SiHa; format: cell-based, human
Text: as §4, §5

[9] = target: T4, CDK4/cyclinD(h) (Homo sapiens, UniProt P11802); test: Kinase inhibition assay (Eurofins KinaseProfiler); format: biochemical; details: ATP at Km
T4 construct: purchased Eurofins (KinaseProfiler service)
T4 sequence (P11802 whole entry): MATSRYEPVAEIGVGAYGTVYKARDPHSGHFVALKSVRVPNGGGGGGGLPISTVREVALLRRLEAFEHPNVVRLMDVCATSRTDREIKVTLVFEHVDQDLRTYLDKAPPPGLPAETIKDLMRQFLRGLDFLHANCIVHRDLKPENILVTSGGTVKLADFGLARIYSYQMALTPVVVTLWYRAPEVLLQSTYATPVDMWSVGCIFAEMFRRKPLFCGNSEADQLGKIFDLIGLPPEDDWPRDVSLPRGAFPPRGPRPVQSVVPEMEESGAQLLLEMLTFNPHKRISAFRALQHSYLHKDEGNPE
T4 sequence (P30281 whole entry partner): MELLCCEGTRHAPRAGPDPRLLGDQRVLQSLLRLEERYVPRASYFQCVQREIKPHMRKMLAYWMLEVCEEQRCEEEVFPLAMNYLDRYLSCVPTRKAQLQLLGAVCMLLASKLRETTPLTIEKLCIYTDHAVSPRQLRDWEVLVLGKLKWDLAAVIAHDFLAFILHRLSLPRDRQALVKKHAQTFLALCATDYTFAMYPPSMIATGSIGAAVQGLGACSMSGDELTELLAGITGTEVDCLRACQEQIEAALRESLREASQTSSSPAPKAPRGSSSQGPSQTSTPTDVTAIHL
Experimental: as §1
(§8) CDK1/cyclinB (h) (CDK2/cyclinA (h), CDK3/cyclinE (h), CDK4/CyclinD(h), CDK5/p25 (h), CDK6/cyclinD3 (h)) were incubated with 8 mM MOPS pH 7.0, 0.2 mM EDTA, 0.1 mg/mL histone H1, 10 mM MgAcetate and [gamma-33P]-ATP (specific activity and concentration as required).
as §3

[10] = target: T5, CDK5/p25(h) (Homo sapiens, UniProt Q00535); test: Kinase inhibition assay (Eurofins KinaseProfiler); format: biochemical; details: ATP at Km
T5 construct: purchased Eurofins (KinaseProfiler service)
T5 sequence (Q00535 whole entry): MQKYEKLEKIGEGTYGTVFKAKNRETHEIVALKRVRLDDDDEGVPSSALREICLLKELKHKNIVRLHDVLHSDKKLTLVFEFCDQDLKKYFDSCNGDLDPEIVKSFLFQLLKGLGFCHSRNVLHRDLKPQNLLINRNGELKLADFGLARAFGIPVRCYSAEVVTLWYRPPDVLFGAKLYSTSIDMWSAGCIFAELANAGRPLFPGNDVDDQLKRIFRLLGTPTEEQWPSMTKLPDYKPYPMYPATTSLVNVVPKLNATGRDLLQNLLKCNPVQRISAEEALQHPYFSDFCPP
T5 sequence (Q15078 99-307 partner limits assumed): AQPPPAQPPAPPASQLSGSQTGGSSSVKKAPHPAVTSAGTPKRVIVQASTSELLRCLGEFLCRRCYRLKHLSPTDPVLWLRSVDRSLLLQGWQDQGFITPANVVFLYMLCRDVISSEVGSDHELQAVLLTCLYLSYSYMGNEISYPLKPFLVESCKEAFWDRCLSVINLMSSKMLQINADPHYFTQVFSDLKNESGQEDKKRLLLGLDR
Experimental: as §1, §8, §3

[11] = target: T6, CDK6/cyclinD3(h) (Homo sapiens, UniProt Q00534); test: Kinase inhibition assay (Eurofins KinaseProfiler); format: biochemical; details: ATP at Km
T6 construct: purchased Eurofins (KinaseProfiler service)
T6 sequence (Q00534 whole entry): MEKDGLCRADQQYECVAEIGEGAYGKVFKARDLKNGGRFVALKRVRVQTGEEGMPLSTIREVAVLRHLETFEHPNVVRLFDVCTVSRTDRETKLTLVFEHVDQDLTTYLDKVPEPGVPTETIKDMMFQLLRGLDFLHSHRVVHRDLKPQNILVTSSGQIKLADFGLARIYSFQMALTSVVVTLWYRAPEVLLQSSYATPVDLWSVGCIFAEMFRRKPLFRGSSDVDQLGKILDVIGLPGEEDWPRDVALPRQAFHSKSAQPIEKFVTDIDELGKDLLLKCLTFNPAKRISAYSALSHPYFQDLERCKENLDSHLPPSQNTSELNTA
T6 sequence (P30281 whole entry partner): as the sequence (P30281 whole entry partner) above
Experimental: as §1, §8, §3

[12] = target: T7, CDK3/cyclinE(h) (Homo sapiens, UniProt Q00526); test: Kinase inhibition assay (Eurofins KinaseProfiler); format: biochemical; details: ATP at Km
T7 construct: purchased Eurofins (KinaseProfiler service)
Experimental: as §1, §8, §3

[13] = target: T8, CDK1/cyclinB(h) (Homo sapiens, UniProt P06493); test: Kinase inhibition assay (Eurofins KinaseProfiler); format: biochemical; details: ATP at Km
T8 construct: purchased Eurofins (KinaseProfiler service)
T8 sequence (P06493 whole entry): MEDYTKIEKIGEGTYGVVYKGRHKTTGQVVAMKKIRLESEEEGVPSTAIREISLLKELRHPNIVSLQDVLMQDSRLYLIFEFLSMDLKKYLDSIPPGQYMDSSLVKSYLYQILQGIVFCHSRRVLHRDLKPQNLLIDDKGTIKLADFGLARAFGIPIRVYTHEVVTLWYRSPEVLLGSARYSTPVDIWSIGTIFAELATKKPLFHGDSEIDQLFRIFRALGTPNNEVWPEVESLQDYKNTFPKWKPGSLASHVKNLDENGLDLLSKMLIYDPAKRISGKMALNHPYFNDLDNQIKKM
T8 sequence (P14635 whole entry partner): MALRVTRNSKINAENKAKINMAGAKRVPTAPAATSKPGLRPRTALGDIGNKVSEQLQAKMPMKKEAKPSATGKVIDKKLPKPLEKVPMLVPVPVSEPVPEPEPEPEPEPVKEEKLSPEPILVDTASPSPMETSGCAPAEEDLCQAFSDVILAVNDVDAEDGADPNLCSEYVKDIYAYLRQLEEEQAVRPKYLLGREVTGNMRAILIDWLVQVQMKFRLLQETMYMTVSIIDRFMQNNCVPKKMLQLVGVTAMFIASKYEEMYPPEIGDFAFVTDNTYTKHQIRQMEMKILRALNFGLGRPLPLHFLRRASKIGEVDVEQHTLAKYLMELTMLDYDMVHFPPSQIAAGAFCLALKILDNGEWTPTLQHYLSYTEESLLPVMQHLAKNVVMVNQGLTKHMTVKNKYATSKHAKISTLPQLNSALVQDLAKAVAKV
Experimental: as §1, §8, §3

[14] = target: T9, CDK2/cyclinA(h) (Homo sapiens, UniProt P24941); test: Kinase inhibition assay (Eurofins KinaseProfiler); format: biochemical; details: ATP at Km
T9 construct: purchased Eurofins (KinaseProfiler service)
Experimental: as §1, §8, §3

[15] = system: OVCAR-5; test: CCK-8 cell growth inhibition, OVCAR-5; format: cell-based, human; details: Homo sapiens, OVCAR-5; ovarian cancer; CCK-8 assay, 72-h incubation
Experimental: as §6, §7

CC(C)n1nnc2ccc(-c3nc(Nc4ccc(CNC(=O)C5(C(=O)Nc6ccccc6)CC5)cc4)ncc3F)cc21 [12O]
inhibition at 1 µM [1]: 12% | inhibition at 1 µM [2]: -1% | proliferation by colony formation assay [3]: effectively inhibited | IC50 [4]: 10 nM | proportion of the cells in the G2/M phase ([5]; DMSO 16.0 ± 1.3%): 22.3 ± 0.7% | fraction of the cells in the S phase ([5]; DMSO 22.8 ± 0.4 %): 16.1 ± 1.1% | IC50 [6]: 24 nM | inhibition at 1 µM ([7]; 1 µM): 100% | IC50 [7]: 9 nM | formation of colonies [8]: dose-dependently decreased | inhibition at 1 µM ([9]; 1 µM): 91% | IC50 [9]: 157 nM | inhibition at 1 µM ([10]; 1 µM): 99% | IC50 [10]: 6 nM | inhibition at 1 µM [11]: 74% | inhibition at 1 µM [12]: 86% | inhibition at 1 µM ([13]; 1 µM): 98% | IC50 [13]: 10 nM | inhibition at 1 µM ([14]; 1 µM): 99% | IC50 [14]: 5 nM | IC50 [15]: 52 nM
